Molecules are shown by their SMILES. Converted amounts (≈) assume the structure as drawn. Where two headings read alike, the source gives them in different places.

One may read the solubility as how much of the substance goes into solution per volume. As a reminder, the solubility (thermodynamic) is solubility found after equilibrating the solid with the medium.

The conditions of data set [1]: for mass change (GVS): between 0-90% RH. As for the experimental part: Sorption isotherms were obtained using a SMS DVS Intrinsic moisture sorption analyser, controlled by DVS Intrinsic Control software v1.0.0.30. The sample temperature was maintained at 25° C. by the instrument controls. The humidity was controlled by mixing streams of dry and wet nitrogen, with a total flow rate of 200 ml/min. […] The weight change, (mass relaxation) of the sample as a function of % RH was constantly monitored by the microbalance (accuracy±0.005 mg). Typically 5-20 mg of sample was placed in a tared mesh stainless steel basket under ambient conditions. The sample was loaded and unloaded at 40% RH and 25° C. (typical room conditions). A moisture sorption isotherm was performed as outlined below (2 scans giving 1 complete cycle). The standard isotherm was performed at 25° C. at 10% RH intervals over a 0-90% RH range. Data analysis was undertaken in Microsoft Excel using DVS Analysis Suite v6.0.0.7. The sample was recovered after completion of the isotherm and re-analysed by XRPD.

Data set [2] is described as follows: Thermodynamic aqueous solubility. The format is physicochemical. The following applies: water, 25 °C, thermodynamic from solid. As for the experimental part: The suspension was equilibrated at 25° C. for 24 hours then the pH was measured. The suspension was then filtered through a glass fibre C filter. The filtrate was then diluted by an appropriate factor e.g. 101. Quantitation was by HPLC with reference to a standard solution of approximately 0.25 mg/ml in DMSO. Different volumes of the standard, diluted and undiluted sample solutions were injected. The solubility was calculated using the peak areas determined by integration of the peak found at the same retention time as the principal peak in the standard injection.
Analysis was performed on an Agilent HP1100 series system equipped with a diode array detector and using ChemStation software vB.02.01-SR1.

In the case of `C=CC(=O)N1CCC[C@@H](n2nc(-c3ccc(Oc4ccccc4)cc3)c3c(N)ncnc32)C1` [Form A, 1-((R)-3-(4-amino-3-(4-phenoxyphenyl)-1H-pyrazolo[3,4-d]pyrimidin-1-yl)piperidin-1-yl)prop-2-en-1-one], the “changes in the XRPD after GVS analysis” value in data set [1] was “No significant changes”. Moreover, in data set [1] (25° C.), the “mass change (GVS)” value is recorded as less than 0.3 % w/w. Moreover, the solubility at 24 h in data set [2] (pH 1.2, simulated gastric fluid, pH 1.2, 25° C., 24 hours, read-out: Conc. Found (solubility in aqueous solution)) was 1300 µg/mL (≈ 2950 µM); in data set [2] (pH 1.64, simulated gastric fluid, pH 1.64, 25° C., 24 hours, read-out: Conc. Found (solubility in aqueous solution)), 1070 µg/mL (≈ 2430 µM); in data set [2] (pH 1.95, simulated gastric fluid, pH 1.95, 25° C., 24 hours, read-out: Conc. Found (solubility in aqueous solution)), 820 µg/mL (≈ 1860 µM); in data set [2] (pH 3, aqueous buffer, pH 3, 25° C., 24 hours, read-out: Conc. Found (solubility in aqueous solution)), 100 µg/mL (≈ 227 µM); in data set [2] (pH 4, aqueous buffer, pH 4, 25° C., 24 hours, read-out: Conc. Found (solubility in aqueous solution)), 22 µg/mL (≈ 49.9 µM); in data set [2] (pH 5, aqueous buffer, pH 5, 25° C., 24 hours, read-out: Conc. Found (solubility in aqueous solution)), 17 µg/mL (≈ 38.6 µM). Also, the solubility at 24 h was 15 µg/mL (≈ 34.1 µM) in data set [2] (pH 6, aqueous buffer, pH 6, 25° C., 24 hours, read-out: Conc. Found (solubility in aqueous solution)); roughly 13 µg/mL (≈ 29.5 µM) in data set [2] (pH 8, aqueous buffer, pH 8, 25° C., 24 hours, read-out: Conc. Found (solubility in aqueous solution)); 20 µg/mL (≈ 45.4 µM) in data set [2] (pH 9, aqueous buffer, pH 9, 25° C., 24 hours, read-out: Conc. Found (solubility in aqueous solution)); 10 µg/mL (≈ 22.7 µM) in data set [2] (pH 10, aqueous buffer, pH 10, 25° C., 24 hours, read-out: Conc. Found (solubility in aqueous solution)).

Take `C=CC(=O)N1CCC[C@@H](n2nc(-c3ccc(Oc4ccccc4)cc3)c3c(N)ncnc32)C1` [Form B, 1-((R)-3-(4-amino-3-(4-phenoxyphenyl)-1H-pyrazolo[3,4-d]pyrimidin-1-yl)piperidin-1-yl)prop-2-en-1-one]: in data set [1] (0-90% RH, 25° C.), the “hysteresis (GVS)” value is on record as “No hysteresis”. Also, the “changes in the XRPD after GVS analysis” value in data set [1] is reported as “No significant changes”. Moreover, in data set [1] (25° C.), the “mass change (GVS)” value is recorded as 2.3 % w/w. Moreover, the solubility at 24 h in data set [2] (pH 7.42, water, pH of about 7.42, read-out: observed aqueous solubility) was roughly 9.6 µg/mL (≈ 21.8 µM). The same molecule came in with a solubility (thermodynamic) at 24 h in data set [2] (pH 7.42, water, pH of 7.42) of 9.6 µg/mL (≈ 21.8 µM).

The record behind these values is US9296753B2, “Crystalline forms of a Bruton's tyrosine kinase inhibitor” (Pharmacyclics LLC, priority 2012, dated 2016).
